Results reported in US7875284B2, “Methods of manufacturing and modifying taxane coatings for implantable medical devices” (Cook Incorporated, priority 2006, dated 2011).

Experiments:
[1] = for first order rate constants k1, k2 used for the dissolution formula: restated
Text: The rate of dissolution of the taxane therapeutic agent can vary based on the elution medium being used and the solid form of the taxane therapeutic agent before dissolution. An elution profile can be obtained by any suitable method that allows for measurement of the release of the taxane therapeutic agent from the coating in a manner that can be measured with a desired level of accuracy and precision. In one embodiment, the elution profile of the release of a taxane therapeutic agent is obtained by contacting the medical device with a suitable elution medium. The elution medium can be formulated to simulate conditions present at a particular point of treatment within a body vessel. For example, an elution medium comprising porcine serum can be used to simulate implantation within a blood vessel. The release of taxane therapeutic agent from the medical device can be measured by any suitable spectrographic method, such as measurement of a UV absorption spectrum of the test fluid after contacting the medical device. Typically, the intensity of absorption at characteristic UV absorption peak, such as about 227 nm, can be correlated to the presence and amount of a taxane therapeutic agent in a sample. The amount of taxane therapeutic agent on the medical device can be determined by contacting the medical device with a suitable elution medium and detecting the amount of taxane therapeutic agent released from the medical device into the elution medium.
Preferably, the coated medical device can be contacted with a modified porcine serum elution medium at a constant flow rate of 16 mL/min for a desired period of time (e.g., 6-24 hours) sufficient to elute the aPTX present on the stent. The percentage of the taxane therapeutic agent dissolved can be measured as a function of time by monitoring the optical density of the first elution medium at 227 nm after contacting the coated stent, as described above. The modified porcine serum elution medium can be prepared by adding 0.104 mL of a 6.0 g/L Heparin solution to porcine serum at 37° C. and adjusting the pH to 5.6+/−0.3 using a 20% v/v aqueous solution of acetic acid. The elution rate profile of the taxane therapeutic agent can be measured for any desired period, and correlated to the amount of aPTX in the coating. Subsequently, the coated medical device is contacted with a second elution medium comprising 0.3% sodium dodecyl sulfate (SDS) at 25° C. a constant flow rate of 16 mL/min for a suitable time period to elute the dPTX present in the coating. The elution rate profile of the taxane therapeutic agent can be measured for any desired period, and correlated to the amount of aPTX (e.g., by elution in porcine serum) and dPTX (e.g., by subsequent elution in SDS) in the coating.

[2] = Elution of paclitaxel coatings in 0.3% sodium dodecyl sulfate (SDS); assay type: physicochemical; conditions: 0.3% SDS, 25° C.; FIGS. 7A-7B
Text: Taxane therapeutic agents can have different elution profiles in different elution media. Another suitable elution medium for taxane therapeutic agent is sodium dodecyl sulfate (SDS).

[3] = Elution of paclitaxel coatings in aqueous Heptakis-(2,6-di-O-methyl)-β-cyclodextrin (HCD); assay type: physicochemical; conditions: 0.5% w/w aqueous HCD, 25° C.; within about 1 hour
Text: A preferred first elution medium is an aqueous solution comprising 0.1% to about 10% of a cyclodextrin. In one aspect, an elution profile may be obtained by contacting a coated medical device comprising a taxane therapeutic agent with an elution medium comprising a cyclodextrin. A cyclodextrin is a cyclic oligosaccharide formed from covalently-linked glucopyranose rings defining an internal cavity. The diameter of the internal axial cavity of cyclodextrins increases with the number of glucopyranose units in the ring. The size of the glucopyranose ring can be selected to provide an axial cavity selected to match the molecular dimensions of a taxane therapeutic agent. The cyclodextrin is preferably a modified beta-cyclodextrin, such as Heptakis-(2,6-di-O-methyl)-β-cyclodextrin (HCD). Suitable cyclodedtrin molecules include other β-cyclodextrin molecules, as well as γ-cyclodextrin structures.
Preferably, the cyclodextrin elution medium is formulated to provide distinguishable elution rates for different coating configurations, providing different elution profiles for different solid forms of a taxane therapeutic agent in the coating. […] For example, the elution medium may contact a medical device coating in a continuous flow configuration, or in a batch testing configuration.
Taxane therapeutic agents typically have different elution profiles in different elution media.

Row | time within which substantially all of the paclitaxel eluted ([1]; continuous flow of porcine serum, FIG. 14, Example 6) | half life of elution ([1]; pig, serum) | percentage of the coating dissolved ([1]; porcine serum, 37° C., single-layer coating on vascular stent, within about 6.5 hours (400 minutes)) [%] | first order rate constants k1, k2 used for the dissolution formula ([1]; porcine serum) [min⁻¹] | rate of elution compared with dihydrate paclitaxel [2] | percentage of paclitaxel dissolved/released [3] | first order rate constant of elution ([1]; porcine serum (25° C.) as printed) | percentage of the coating eluted ([1]; porcine serum, 37° C., single-layer coating on vascular stent, after about 24 hours) | Structure (SMILES)
1 | less than 5 hours | about 30 minutes | 100 | 0.0244 | more rapid | about 80% |  |  | CC(=O)O[C@H]1C(=O)[C@@]2(C)[C@H]([C@H](OC(=O)c3ccccc3)[C@]3(O)C[C@H](OC(=O)[C@H](O)[C@@H](NC(=O)c4ccccc4)c4ccccc4)C(C)=C1C3(C)C)[C@]1(OC(C)=O)CO[C@@H]1C[C@@H]2O [amorphous paclitaxel, paclitaxel]
2 |  |  |  | 0.0003 |  | less than 20% | about 0.0003 min^−1 | less than 40% | CC(=O)O[C@H]1C(=O)[C@@]2(C)[C@H]([C@H](OC(=O)c3ccccc3)[C@]3(O)C[C@H](OC(=O)[C@H](O)[C@@H](NC(=O)c4ccccc4)c4ccccc4)C(C)=C1C3(C)C)[C@]1(OC(C)=O)CO[C@@H]1C[C@@H]2O [dihydrate paclitaxel, paclitaxel]
